From patent US11613556B2, “Oxysterols and methods of use thereof” (Sage Therapeutics, Inc., priority 2016, dated 2023)
Like-named read-outs stand apart in the source and are kept apart here.

Tests used:
Format in all cases: cell-based
[1] = biological target: glutamate-activated channels of the GRIN1/2A subtype stably transfected in HEK 293 cells (Homo sapiens (Human), UniProt Q05586+Q12879); assay: Automated patch-clamp system (QPatch HTX), percent potentiation at 1 μM; conditions: HEK293, 1 μM test compound, 300 μM NMDA with 8 μM glycine, HEK 293 GRIN1/2A, read-out: GluN2A PCA % potentiation at 1 μM
Chain of glutamate-activated channels of the GRIN1/2A subtype stably transfected in HEK 293 cells (Q12879 whole entry, looked up, other chains not shown): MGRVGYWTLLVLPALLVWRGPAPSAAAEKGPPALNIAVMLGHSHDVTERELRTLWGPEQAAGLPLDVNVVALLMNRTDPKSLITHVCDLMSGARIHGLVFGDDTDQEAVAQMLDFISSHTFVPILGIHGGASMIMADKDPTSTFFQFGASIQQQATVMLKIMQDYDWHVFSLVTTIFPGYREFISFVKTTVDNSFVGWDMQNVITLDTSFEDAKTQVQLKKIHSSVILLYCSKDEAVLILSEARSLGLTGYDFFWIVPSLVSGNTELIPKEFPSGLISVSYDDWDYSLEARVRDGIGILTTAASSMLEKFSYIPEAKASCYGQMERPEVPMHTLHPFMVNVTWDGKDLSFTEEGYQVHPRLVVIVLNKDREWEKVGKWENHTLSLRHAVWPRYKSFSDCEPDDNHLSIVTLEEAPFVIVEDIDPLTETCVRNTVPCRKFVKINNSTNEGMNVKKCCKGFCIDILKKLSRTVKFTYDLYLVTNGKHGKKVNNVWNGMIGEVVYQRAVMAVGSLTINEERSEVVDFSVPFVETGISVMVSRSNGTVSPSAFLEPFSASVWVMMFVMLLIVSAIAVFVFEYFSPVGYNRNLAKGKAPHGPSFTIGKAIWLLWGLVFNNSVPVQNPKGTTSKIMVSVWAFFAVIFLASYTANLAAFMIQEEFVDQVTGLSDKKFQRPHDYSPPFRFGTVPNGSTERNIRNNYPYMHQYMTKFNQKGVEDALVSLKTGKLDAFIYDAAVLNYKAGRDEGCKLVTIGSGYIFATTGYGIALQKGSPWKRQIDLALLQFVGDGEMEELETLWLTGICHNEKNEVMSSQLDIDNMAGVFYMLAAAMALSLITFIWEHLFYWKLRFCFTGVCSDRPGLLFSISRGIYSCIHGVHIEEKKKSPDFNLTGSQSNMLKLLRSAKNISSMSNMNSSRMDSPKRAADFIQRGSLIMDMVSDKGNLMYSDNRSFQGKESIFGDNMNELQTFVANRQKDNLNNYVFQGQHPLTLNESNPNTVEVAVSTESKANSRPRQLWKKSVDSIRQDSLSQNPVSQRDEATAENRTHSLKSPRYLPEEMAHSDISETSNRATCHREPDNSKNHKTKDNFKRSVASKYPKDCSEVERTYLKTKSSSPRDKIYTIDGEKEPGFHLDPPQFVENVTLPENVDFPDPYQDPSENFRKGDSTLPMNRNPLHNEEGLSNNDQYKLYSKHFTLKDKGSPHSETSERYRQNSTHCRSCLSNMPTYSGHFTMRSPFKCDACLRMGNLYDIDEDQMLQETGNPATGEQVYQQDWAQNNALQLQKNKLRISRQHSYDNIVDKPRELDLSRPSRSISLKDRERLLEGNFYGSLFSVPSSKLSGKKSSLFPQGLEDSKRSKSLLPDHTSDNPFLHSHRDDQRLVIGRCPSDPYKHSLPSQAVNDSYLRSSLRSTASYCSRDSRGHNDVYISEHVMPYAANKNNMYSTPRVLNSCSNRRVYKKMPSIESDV
Experimental: (§1) NMDA potentiation in mammalian cells which expressed NMDA receptors was assessed using the automatic patch-clamp system can be used determine the NAM activity of compounds as described below. An whole cell patch-clamp system can be used determine the PAM activity of compounds as described below.
Automated Patch-Clamp System (OPatch HTX):
In this study, HEK 293 cells stably transfected with glutamate-activated channels of the GRIN1/2A subtype will be used together with submaximal NMDA concentrations (300 μM NMDA, co-application with 8 μM Glycine) to investigate the negative allosteric modulation of the test compounds.
In general, cells will be passaged at a confluence of about 80% to […]. For electrophysiological measurements cells will be harvested at a confluence of about 80% to 90% from sterile culture flasks containing culture complete medium. Cells will be transferred as suspension in PBS to the QPatch 16X or QPatch HTX system to the centrifuge/washer directly.
Standard Laboratory Conditions: Cells will be incubated at 37° C. in a humidified atmosphere with 5% CO2 (rel. humidity about 95%).
Culture media: The cells will be continuously maintained in and passaged in sterile culture flasks containing a 1:1 mixture of Dulbecco's modified eagle medium and nutrient mixture F-12 (D-MEM/F-12 1×, liquid, with L-Glutamine) supplemented with 10% fetal bovine serum, 1% Penicillin/Streptomycin solution, and 50 μM AP-5 blocker.
Antibiotics: The complete medium as indicated above is supplemented with 100 μg/mL hygromycin, 15 μg/mL blasticidin and 1 μg/mL puromycin.
Induction of Expression: 2.5 μg/mL tetracycline is added 24 h before start of experiments.
Dose levels are in terms of test compounds, as supplied. Vehicle will be added to achieve a stock concentration of 10 mM (storage at −10° C. to −30° C.). A further stock solutions of 1.0 mM will be prepared in DMSO. Details of stock solution usage (thawing, dose formulations) will be documented in the raw data. The time period of stock solution usage will be detailed in the report.
Test Compound Concentrations
One test concentration of 1.0 μM will be tested.
All test solutions will be prepared by diluting the stock solutions with either Mg-free bath solution only or Mg-free bath solution containing NMDA (300 μM) and glycine (8.0 μM) shortly prior to the electrophysiological experiments and kept at room temperature (19° C. to 30° C.) when in use. 0.1% DMSO will be used as vehicle.
Frequency of preparation: For each test concentration, fresh solutions of test compounds will be prepared every day.
Stability of dose formulation: All preparation times will be documented in the raw data. Any observations regarding instability of test compounds will be mentioned in the raw data.
Storage of dose formulation: On the day of experimentation dose formulations will be maintained at room temperature (19° C. to 30° C.) when in use.
For preparing the experiments and for formation of the giga-ohm-seal, the following standard bath solution will be used:
Sodium Chloride: 137 mM; Potassium Chloride: 4 mM; Calcium Chloride: 1.8 mM; Magnesium Chloride: 1 mM; HEPES: 10 mM; D-Glucose: 10 mM; Cremophor: 0.02%; pH (NaOH): 7.4
The 1× bath solution will be prepared by diluting 10× bath solution without Glucose and 100× Glucose solution with water at least every 7 days. Both stock solutions have been prepared prior to the experimental start of the present study and stored at 1° C. to 9° C. (10× bath solution) or −10° C. to −30° (100× Glucose solution). The batch number(s) of the bath solution(s) used in the experiments will be documented in the raw data. When in use, the 1× bath solution will be kept at room temperature (19° C. to 30° C.). When not in use, the 1× bath solution will be stored at 1° C. to 9° C.
After the giga-seal was formed the following Mg-free bath solution will be used:
Sodium Chloride: 137 mM; Potassium Chloride: 4 mM; Calcium Chloride; 2.8 mM; HEPES: 10 mM; D-Glucose: 10 mM; Cremophor: 0.02%; pH (NaOH): 7.4 […]

[2] = biological target: GluN1/GluN2A glutamate receptors (human GRIN1/GRIN2A) expressed in HEK293 cells (Homo sapiens (Human), UniProt Q05586+Q12879); assay: Whole-cell patch clamp of mammalian cells (Ionworks Barracuda), positive allosteric modulation, GluN1/GluN2A; conditions: for Emax: read-out: GluN2A PCA EMax (%)
Chain of GluN1/GluN2A glutamate receptors (human GRIN1/GRIN2A) expressed in HEK293 cells (Q12879 whole entry, looked up, other chains not shown): as above
Experimental: as §1
(§2) The measurements were performed using Ion Works Barracuda platform following this procedure:
(§3) Electrophysiological Procedures: • a) Intracellular solution (mM): 50 mM CsCl, 90 mM CsF, 2 mM MgCl2, 5 mM EGTA, 10 mM HEPES. Adjust to pH 7.2 with CsOH. • b) Extracellular solution, HB-PS (composition in mM): NaCl, 137; KCl, 1.0; CaCl2, 5; HEPES, 10; Glucose, 10; pH adjusted to 7.4 with NaOH (refrigerated until use). • c) Holding potential: −70 mV, potential during agonist/PAM application: −40 mV.
(§4) Recording Procedure: • a) Extracellular buffer will be loaded into the PPC plate wells (11 μL per well). Cell suspension will be pipetted into the wells (9 μL per well) of the PPC planar electrode. • b) Whole-cell recording configuration will be established via patch perforation with membrane currents recorded by on-board patch clamp amplifiers. • c) Two recordings (scans) will be performed. First, during pre-application of test article alone (duration of pre-application—5 min) and second, during test articles and agonist (EC20 L-glutamate and 30 μM glycine) co-application to detect positive modulatory effects of the test article.
(§5) Test Article Administration: The first pre-application will consist of the addition of 20 μL of 2× concentrated test article solution and, second, of 20 μL of 1× concentrated test article and agonist at 10 μL/s (2 second total application time).
(§6) Potentiating Effect of Positive Allosteric Modulators (PAM) on the Channel
(§7) The maximal amplitude of the evoked currents are measured and defined as Peak Current Amplitude (PCA).

[3] = biological target: GluN2B glutamate receptors expressed in mammalian cells (Homo sapiens (Human), UniProt Q05586+Q13224); assay: Whole-cell patch clamp of mammalian cells (Ionworks Barracuda), positive allosteric modulation, GluN2B; conditions: for Emax: read-out: GluN2B PCA EMax (%)
Chain of GluN2B glutamate receptors expressed in mammalian cells (Q13224 27-1484, other chains not shown): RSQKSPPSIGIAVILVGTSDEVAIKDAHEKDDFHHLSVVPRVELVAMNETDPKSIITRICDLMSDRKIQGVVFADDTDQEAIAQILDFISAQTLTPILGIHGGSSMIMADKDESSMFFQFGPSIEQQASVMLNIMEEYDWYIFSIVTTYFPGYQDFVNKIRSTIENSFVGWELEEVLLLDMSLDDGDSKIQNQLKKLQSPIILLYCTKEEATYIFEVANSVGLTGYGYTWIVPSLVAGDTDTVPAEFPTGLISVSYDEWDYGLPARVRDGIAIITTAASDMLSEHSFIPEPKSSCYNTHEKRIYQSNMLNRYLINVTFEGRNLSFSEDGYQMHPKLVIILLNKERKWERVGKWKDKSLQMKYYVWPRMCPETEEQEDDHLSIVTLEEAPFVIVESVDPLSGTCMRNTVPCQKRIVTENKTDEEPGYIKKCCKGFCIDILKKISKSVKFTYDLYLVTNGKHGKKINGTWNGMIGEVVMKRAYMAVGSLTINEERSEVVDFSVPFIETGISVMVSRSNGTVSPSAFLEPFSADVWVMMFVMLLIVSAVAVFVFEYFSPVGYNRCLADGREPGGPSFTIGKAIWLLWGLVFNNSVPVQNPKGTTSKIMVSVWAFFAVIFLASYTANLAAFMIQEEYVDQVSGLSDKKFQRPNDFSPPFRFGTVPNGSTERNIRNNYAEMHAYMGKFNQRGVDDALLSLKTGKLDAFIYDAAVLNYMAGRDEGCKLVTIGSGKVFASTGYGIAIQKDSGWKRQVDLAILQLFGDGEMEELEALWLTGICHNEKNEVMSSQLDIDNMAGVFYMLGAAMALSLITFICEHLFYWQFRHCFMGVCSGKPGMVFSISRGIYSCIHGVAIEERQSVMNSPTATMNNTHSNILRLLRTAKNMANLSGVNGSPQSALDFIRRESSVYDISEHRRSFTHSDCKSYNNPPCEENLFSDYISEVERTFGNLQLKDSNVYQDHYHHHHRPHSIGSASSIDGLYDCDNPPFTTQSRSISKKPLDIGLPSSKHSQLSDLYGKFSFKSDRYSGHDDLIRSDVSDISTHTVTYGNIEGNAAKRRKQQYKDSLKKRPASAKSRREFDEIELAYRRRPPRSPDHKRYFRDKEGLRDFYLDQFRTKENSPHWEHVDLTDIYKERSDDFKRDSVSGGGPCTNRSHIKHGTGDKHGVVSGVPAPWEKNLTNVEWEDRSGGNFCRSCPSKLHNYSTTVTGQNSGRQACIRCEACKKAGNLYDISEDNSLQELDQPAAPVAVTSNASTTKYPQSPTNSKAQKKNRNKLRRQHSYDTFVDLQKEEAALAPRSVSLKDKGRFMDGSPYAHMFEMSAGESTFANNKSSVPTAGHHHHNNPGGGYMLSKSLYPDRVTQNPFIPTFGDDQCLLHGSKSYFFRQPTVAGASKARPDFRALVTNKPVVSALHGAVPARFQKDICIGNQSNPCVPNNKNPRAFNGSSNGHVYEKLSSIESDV
Experimental: as §1, §2, §3, §4, §5, §6, §7

[4] = peak current amplitude, co-application with EC20 L-glutamate and 30 μM glycine, HEK293

`C[C@@H]([C@H]1CC[C@H]2[C@@H]3CC=C4C[C@](O)(C(F)(F)F)CC[C@]4(C)[C@H]3CC[C@]12C)[C@H](O)C(F)(F)F` [Compound 1, (3S,8S,9S,10R,13S,14S,17R)-10,13-dimethyl-17-((2S,3S)-4,4,4-trifluoro-3-hydroxybutan-2-yl)-3-(trifluoromethyl)-2,3,4,7,8,9,10,11,12,13,14,15,16,17-tetradecahydro-1H-cyclopenta[a]phenanthren-3-ol] gave an activation at 1 µM [1] of -40 to -10%.
`COC[C@]1(O)CC[C@@]2(C)[C@@H](CC[C@@H]3[C@@H]2CC[C@]2(C)[C@@H]([C@H](C)[C@H](O)CCC(C)C)CC[C@@H]32)C1` [Compound 2, (3S,5S,8R,9S,10S,13S,14S,17R)-17-((2S,3R)-3-hydroxy-6-methylheptan-2-yl)-3-(methoxymethyl)-10,13-dimethylhexadecahydro-1H-cyclopenta[a]phenanthren-3-ol] showed an activation at 1 µM [1] of less than -40%.
`CC[C@]1(O)CC[C@@]2(C)[C@@H](CC[C@@H]3[C@@H]2CC[C@]2(C)[C@@H]([C@H](C)[C@@H](O)c4cccnc4)CC[C@@H]32)C1` [Compound 7, (3S,5S,8R,9S,10S,13S,14S,17R)-3-ethyl-17-((1R,2S)-1-hydroxy-1-(pyridin-3-yl)propan-2-yl)-10,13-dimethylhexadecahydro-1H-cyclopenta[a]phenanthren-3-ol] showed an activation at 1 µM [1] of -10 to 10%.
With `COC[C@]1(O)CC[C@@]2(C)[C@H](CC[C@@H]3[C@@H]2CC[C@]2(C)[C@@H]([C@H](C)[C@@H](O)C(F)(F)F)CC[C@@H]32)C1` [Compound 9, (3S,5R,8R,9S,10S,13S,14S,17R)-3-(methoxymethyl)-10,13-dimethyl-17-((2S,3R)-4,4,4-trifluoro-3-hydroxybutan-2-yl)hexadecahydro-1H-cyclopenta[a]phenanthren-3-ol] the activation at 1 µM [1] was -40 to -10%.
`CC[C@]1(O)CC[C@@]2(C)[C@@H](CC[C@@H]3[C@@H]2CC[C@]2(C)[C@@H]([C@H](C)[C@@H](O)C4CC4)CC[C@@H]32)C1` [Compound 10, (3S,5S,8R,9S,10S,13S,14S,17R)-17-((1S,2S)-1-cyclopropyl-1-hydroxypropan-2-yl)-3-ethyl-10,13-dimethylhexadecahydro-1H-cyclopenta[a]phenanthren-3-ol] gave an activation at 1 µM [1] of less than -40%.
With `CC[C@]1(O)CC[C@@]2(C)[C@@H](CC[C@@H]3[C@@H]2CC[C@]2(C)[C@@H]([C@H](C)[C@H](O)C(F)(F)F)CC[C@@H]32)C1` [Compound 11, (3S,5S,8R,9S,10S,13S,14S,17R)-3-ethyl-10,13-dimethyl-17-((2S,3S)-4,4,4-trifluoro-3-hydroxybutan-2-yl)hexadecahydro-1H-cyclopenta[a]phenanthren-3-ol] the activation at 1 µM [1] was less than -40%.
`CC[C@]1(O)CC[C@@]2(C)[C@H](CC[C@@H]3[C@@H]2CC[C@]2(C)[C@@H]([C@H](C)[C@H](O)CCC(C)(C)C)CC[C@@H]32)C1` [Compound 15, (3S,5R,8R,9S,10S,13S,14S,17R)-3-ethyl-17-((2S,3R)-3-hydroxy-6,6-dimethylheptan-2-yl)-10,13-dimethylhexadecahydro-1H-cyclopenta[a]phenanthren-3-ol] gave an activation at 1 µM [1] of -40 to -10%.
For `CC[C@]1(O)CC[C@@]2(C)[C@@H](CC[C@@H]3[C@@H]2CC[C@]2(C)[C@@H]([C@H](C)[C@@H](O)C(F)(F)F)CC[C@@H]32)C1` [Compound 16, (3S,5S,8R,9S,10S,13S,14S,17R)-3-ethyl-10,13-dimethyl-17-((2S,3R)-4,4,4-trifluoro-3-hydroxybutan-2-yl)hexadecahydro-1H-cyclopenta[a]phenanthren-3-ol], the activation at 1 µM [1] was -40 to -10%.
Compound `CC[C@]1(O)CC[C@@]2(C)[C@@H](CC[C@@H]3[C@@H]2CC[C@]2(C)[C@@H]([C@H](C)[C@H](O)CC4CCOCC4)CC[C@@H]32)C1` [Compound 18, (3S,5S,8R,9S,10S,13S,14S,17R)-3-ethyl-17-((2S,3R)-3-hydroxy-4-(tetrahydro-2H-pyran-4-yl)butan-2-yl)-10,13-dimethylhexadecahydro-1H-cyclopenta[a]phenanthren-3-ol] has an activation at 1 µM [1] of -10 to 10%.
`CC[C@]1(O)CC[C@@]2(C)[C@@H](CC[C@@H]3[C@@H]2CC[C@]2(C)[C@@H]([C@H](C)[C@H](O)c4ccccc4)CC[C@@H]32)C1` [Compound 19, (3S,5S,8R,9S,10S,13S,14S,17R)-3-ethyl-17-((1S,2S)-1-hydroxy-1-phenylpropan-2-yl)-10,13-dimethylhexadecahydro-1H-cyclopenta[a]phenanthren-3-ol] showed an activation at 1 µM [1] of -40 to -10%.
`C[C@@H]([C@H]1CC[C@H]2[C@@H]3CC[C@H]4C[C@](O)(C(F)(F)F)CC[C@]4(C)[C@H]3CC[C@]12C)[C@@H](O)C[C@@H](O)c1ccccc1` [Compound 79, (1R,3S,4S)-4-((3S,5S,8R,9S,10S,13S,14S,17R)-3-hydroxy-10,13-dimethyl-3-(trifluoromethyl)hexadecahydro-1H-cyclopenta[a]phenanthren-17-yl)-1-phenylpentane-1,3-diol] gave an EC50 ([2]; peak current amplitude, co-application with EC20 L-glutamate and 30 μM glycine, HEK293, read-out: GluN2A PCA EC50) greater than 1 µM, an Emax [2, 4] of less than 100% and an EC50 [3] greater than 1 µM. For the same compound, the Emax [3] was less than 100%.
In the case of `CC[C@]1(O)CC[C@H]2[C@H](CC[C@@H]3[C@@H]2CC[C@]2(C)[C@@H]([C@H](C)[C@@H](O)CCC(C)C)CC[C@@H]32)C1` [Compound 82, (3S,5R,8R,9R,10S,13S,14S,17R)-3-ethyl-17-((2S,3S)-3-hydroxy-6-methylheptan-2-yl)-13-methylhexadecahydro-1H-cyclopenta[a]phenanthren-3-ol], the EC50 [2] is reported as greater than 1 µM, the Emax [2, 4] is reported as less than 100% and the EC50 ([3]; peak current amplitude, co-application with EC20 L-glutamate and 30 μM glycine, read-out: GluN2B PCA EC50) is reported as greater than 1 µM. It also gave an Emax ([3]; peak current amplitude, co-application with EC20 L-glutamate and 30 μM glycine) of less than 100%.
